Laboratory results from patent US8263598B2, “Substituted sulfonamide compounds” (Gruenenthal GmbH, priority 2008, dated 2012).

Key:
[1] = molecular target: T1, human B1R receptor (hB1R) (Homo sapiens, UniProt P46663); experiment: FLIPR Ca2+ assay on human bradykinin 1 receptor (CHO K1 hB1R cells); assay type: cell-based; details: test substance 10 μM; CHO K1 cells with human B1R gene; agonist Lys-Des-Arg9-bradykinin 0.5 nM; compared to maximum achievable inhibition
T1 construct: host or cells: CHO K1 cells
T1 sequence (P46663 1-353): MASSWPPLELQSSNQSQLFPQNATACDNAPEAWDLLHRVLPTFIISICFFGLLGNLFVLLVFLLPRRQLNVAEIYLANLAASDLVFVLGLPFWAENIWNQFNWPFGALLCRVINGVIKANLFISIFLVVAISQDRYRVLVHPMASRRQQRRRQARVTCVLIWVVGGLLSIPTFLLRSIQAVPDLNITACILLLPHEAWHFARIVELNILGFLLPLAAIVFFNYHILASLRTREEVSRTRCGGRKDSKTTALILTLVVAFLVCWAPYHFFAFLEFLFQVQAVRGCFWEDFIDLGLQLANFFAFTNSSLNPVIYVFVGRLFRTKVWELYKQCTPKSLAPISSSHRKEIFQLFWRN
How it was run: (§1)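 CHO K1 cells stably expressing human or rat B1R were loaded with Fluo-4 and tested at 10 μM compound. Ca²⁺ signal was read in FLIPR as % activation versus agonist. After 10 min, agonist was added (hB1R: Lys-Des-Arg9-bradykinin 0.5 nM; rB1R: Des-Arg9-bradykinin 100 nM), and % inhibition was taken relative to maximum achievable inhibition.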

[2] = molecular target: T2, B1R receptor of rats (rB1R) (Rattus norvegicus, UniProt P97583); experiment: FLIPR Ca2+ assay on rat bradykinin 1 receptor (CHO K1 rB1R cells); assay type: cell-based; details: test substance 10 μM; CHO K1 cells with B1R gene of rats; agonist Des-Arg9-bradykinin 100 nM; compared to maximum achievable inhibition
T2 construct: host or cells: CHO K1 cells
T2 sequence (P97583 1-337): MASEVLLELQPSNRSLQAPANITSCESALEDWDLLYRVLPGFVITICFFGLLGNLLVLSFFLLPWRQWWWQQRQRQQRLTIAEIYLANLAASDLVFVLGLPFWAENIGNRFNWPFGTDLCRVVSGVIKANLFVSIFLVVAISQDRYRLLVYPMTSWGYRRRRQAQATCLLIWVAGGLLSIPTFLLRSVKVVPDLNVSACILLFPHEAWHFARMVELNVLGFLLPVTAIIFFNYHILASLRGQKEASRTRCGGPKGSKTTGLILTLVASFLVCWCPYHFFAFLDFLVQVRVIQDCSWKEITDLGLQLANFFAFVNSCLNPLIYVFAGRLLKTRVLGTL
How it was run: as §1

Row | Structure (SMILES) | inhibition at 10 µM [1] [%] | inhibition at 10 µM [2] [%]
1 | COc1c(C)cc(S(=O)(=O)N(C)CCOCC(=O)N2CCn3cccc3C2C)c(C)c1C (centres unmarked) [Example 28, 4-methoxy-N,2,3,5-tetramethyl-N-(2-(2-(1-methyl-3,4-dihydropyrrolo[1,2-a]pyrazin-2(1H)-yl)-2-oxoethoxy)ethyl)benzenesulfonamide] | 37 | 81
2 | COc1c(C)cc(S(=O)(=O)N(C)CCOCC(=O)N2CCn3c(CN(C)C)ccc3C2CCc2ccccc2)c(C)c1C (centres unmarked) [Example 110, N-(2-(2-(6-((dimethylamino)methyl)-1-phenethyl-3,4-dihydropyrrolo[1,2-a]pyrazin-2(1H)-yl)-2-oxoethoxy)ethyl)-4-methoxy-N,2,3,5-tetramethylbenzene-sulfonamide] | 103 | 100
3 | COc1c(C)cc(S(=O)(=O)N(C)CCOCC(=O)N2CCn3c(CN4CCOCC4)ccc3C2c2ccccc2)c(C)c1C (centres unmarked) [Example 108, 4-methoxy-N,2,3,5-tetramethyl-N-(2-(2-(6-(morpholinomethyl)-1-phenyl-3,4-dihydropyrrolo[1,2-a]pyrazin-2(1H)-yl)-2-oxoethoxy)ethyl)benzenesulfonamide] | 102 | 102
4 | CCC1c2ccc(CN(C)C)n2CCN1C(=O)COCCN(C)S(=O)(=O)c1c(C)cc(C)cc1C (centres unmarked) [Example 145, N-(2-(2-(6-((dimethylamino)methyl)-1-ethyl-3,4-dihydropyrrolo[1,2-a]pyrazin-2(1H)-yl)-2-oxoethoxy)ethyl)-N,2,4,6-tetramethylbenzenesulfonamide] | 104 | 103
5 | O=C(CC(NS(=O)(=O)c1ccc2ccccc2c1)c1ccccc1)N1CCn2c(ccc2-c2cccnc2)C1 (centres unmarked) [Example 167, N-(3-Oxo-1-phenyl-3-(6-(pyridin-3-yl)-3,4-dihydropyrrolo[1,2-a]pyrazin-2(1H)-yl)propyl)naphthalene-2-sulfonamide] | 32 | 70
6 | COc1cc(C)c(S(=O)(=O)N(C)CCOCC(=O)N2CCn3c(Cc4cccnc4)ccc3C2)c(C)c1 [Example 174, 4-Methoxy-N,2,6-trimethyl-N-(2-(2-oxo-2-(6-(pyridin-3-ylmethyl)-3,4-dihydropyrrolo[1,2-a]pyrazin-2(1H)-yl)ethoxy)ethyl)benzenesulfonamide] | 100 | 94
7 | O=C(CC(NS(=O)(=O)c1ccc2ccccc2c1)c1ccccc1)N1CCn2c(ccc2-c2ccncc2)C1 (centres unmarked) [Example 168, N-(3-Oxo-1-phenyl-3-(6-(pyridin-4-yl)-3,4-dihydropyrrolo[1,2-a]pyrazin-2(1H)-yl)propyl)naphthalene-2-sulfonamide] | 55 | 57
8 | COc1cc(C)c(S(=O)(=O)N(CCOCC(=O)N2CCn3c(CN4CCCC4)ccc3C2c2ccccc2)Cc2ccccc2)c(C)c1C (centres unmarked) [Example 116, N-benzyl-4-methoxy-2,3,6-trimethyl-N-(2-(2-oxo-2-(1-phenyl-6-(pyrrolidin-1-ylmethyl)-3,4-dihydropyrrolo[1,2-a]pyrazin-2(1H)-yl)ethoxy)ethyl)benzene-sulfonamide] | 103 | 102
9 | COc1cc(C)c(S(=O)(=O)N(C)CCOCC(=O)N2CCn3c(CCc4ccncc4)ccc3C2)c(C)c1 [Example 172, 4-Methoxy-N,2,6-trimethyl-N-(2-(2-oxo-2-(6-(2-(pyridin-4-yl)ethyl)-3,4-dihydropyrrolo[1,2-a]pyrazin-2(1H)-yl)ethoxy)ethyl)benzenesulfonamide] | 100 | 97
10 | CCCC1c2cccn2CCN1C(=O)COCCN(C)S(=O)(=O)c1c(C)cc(C)cc1C (centres unmarked) [Example 146, N,2,4,6-tetramethyl-N-(2-(2-oxo-2-(1-propyl-3,4-dihydropyrrolo[1,2-a]pyrazin-2(1H)-yl)ethoxy)ethyl)benzenesulfonamide] | 102 | 102

The remaining lines, values ahead:

Row | inhibition at 10 µM [1] [%] | inhibition at 10 µM [2] [%] | Structure (SMILES)
11 | 101 | 100 | COc1ccc(C2c3cccn3CCN2C(=O)COCCN(C)S(=O)(=O)c2c(C)cc(OC)c(C)c2C)cc1 (centres unmarked) [Example 83, 4-methoxy-N-(2-(2-(1-(4-methoxyphenyl)-3,4-dihydropyrrolo[1,2-a]pyrazin-2(1H)-yl)-2-oxoethoxy)ethyl)-N,2,3,6-tetramethylbenzenesulfonamide]
12 | 100 | 98 | COc1cc(C)c(S(=O)(=O)N(C)CCOCC(=O)N2CCn3cccc3C2CCc2ccccc2)c(C)c1C (centres unmarked) [Example 148, 4-methoxy-N,2,3,6-tetramethyl-N-(2-(2-oxo-2-(1-phenethyl-3,4-dihydropyrrolo[1,2-a]pyrazin-2(1H)-yl)ethoxy)ethyl)benzenesulfonamide]
13 | 104 | 102 | COc1cc(C)c(S(=O)(=O)N(CCOCC(=O)N2CCn3c(CN4CCOCC4)ccc3C2c2ccccc2)CC(C)C)c(C)c1C (centres unmarked) [Example 94, N-isobutyl-4-methoxy-2,3,6-trimethyl-N-(2-(2-(6-(morpholinomethyl)-1-phenyl-3,4-dihydropyrrolo[1,2-a]pyrazin-2(1H)-yl)-2-oxoethoxy)ethyl)benzene-sulfonamide]
14 | 96 | 102 | COc1cc(C)c(S(=O)(=O)N(CCOCC(=O)N2CCn3cccc3C2C(C)C)CC(C)C)c(C)c1C (centres unmarked) [Example 102, N-isobutyl-N-(2-(2-(1-isopropyl-3,4-dihydropyrrolo[1,2-a]pyrazin-2(1H)-yl)-2-oxoethoxy)ethyl)-4-methoxy-2,3,6-trimethylbenzenesulfonamide]
15 | 39 | 69 | COc1cc(C)c(S(=O)(=O)N(CCOCC(=O)N2CCn3cccc3C2c2ccc(C)c(C)c2)Cc2ccccc2)c(C)c1 (centres unmarked) [Example 49, N-benzyl-N-(2-(2-(1-(3,4-dimethylphenyl)-3,4-dihydropyrrolo[1,2-a]pyrazin-2(1H)-yl)-2-oxoethoxy)ethyl)-4-methoxy-2,6-dimethylbenzenesulfonamide]
16 | 55 | 98 | COc1cc(C)c(S(=O)(=O)N(CCOCC(=O)N2CCn3cccc3C2c2cccs2)CC(C)C)c(C)c1C (centres unmarked) [Example 25, N-isobutyl-4-methoxy-2,3,6-trimethyl-N-(2-(2-oxo-2-(1-(thiophen-2-yl)-3,4-dihydropyrrolo[1,2-a]pyrazin-2(1H)-yl)ethoxy)ethyl)benzenesulfonamide]
17 | 103 | 103 | COc1cc(C)c(S(=O)(=O)N(C)CCOCC(=O)N2CCn3cccc3C2C(C)C)c(C)c1C (centres unmarked) [Example 153, N-(2-(2-(1-isopropyl-3,4-dihydropyrrolo[1,2-a]pyrazin-2(1H)-yl)-2-oxoethoxy)ethyl)-4-methoxy-N,2,3,6-tetramethylbenzenesulfonamide]
18 | 58 | 96 | COc1cc(C)c(S(=O)(=O)N(CCOCC(=O)N2CCn3cccc3C2C(C)C)Cc2ccccc2)c(C)c1C (centres unmarked) [Example 124, N-benzyl-N-(2-(2-(1-isopropyl-3,4-dihydropyrrolo[1,2-a]pyrazin-2(1H)-yl)-2-oxoethoxy)ethyl)-4-methoxy-2,3,6-trimethylbenzenesulfonamide]
19 | 95 | 67 | COc1ccc(C2c3cccn3CCN2C(=O)COCCN(C)S(=O)(=O)c2cc(C)c(OC)c(C)c2C)cc1 (centres unmarked) [Example 31, 4-methoxy-N-(2-(2-(1-(4-methoxyphenyl)-3,4-dihydropyrrolo[1,2-a]pyrazin-2(1H)-yl)-2-oxoethoxy)ethyl)-N,2,3,5-tetramethylbenzenesulfonamide]
20 | 34 | 99 | COc1cccc(C2c3cccn3CCN2C(=O)COCCN(CC(C)C)S(=O)(=O)c2c(C)cc(OC)c(C)c2C)c1 (centres unmarked) [Example 26, N-isobutyl-4-methoxy-N-(2-(2-(1-(3-methoxyphenyl)-3,4-dihydropyrrolo[1,2-a]pyrazin-2(1H)-yl)-2-oxoethoxy)ethyl)-2,3,6-trimethylbenzenesulfonamide]
21 | 23 | 87 | CCCC1c2cccn2CCN1C(=O)COCCN(Cc1ccccc1)S(=O)(=O)c1c(C)cc(OC)cc1C (centres unmarked) [Example 154, N-benzyl-4-methoxy-2,6-dimethyl-N-(2-(2-oxo-2-(1-propyl-3,4-dihydropyrrolo[1,2-a]pyrazin-2(1H)-yl)ethoxy)ethyl)benzenesulfonamide]
22 | 100 | 99 | COc1cc(C)c(S(=O)(=O)N(C)CCOCC(=O)N2CCn3cccc3C2c2cccc(C(F)(F)F)c2)c(C)c1 (centres unmarked) [Example 61, 4-methoxy-N,2,6-trimethyl-N-(2-(2-oxo-2-(1-(3-(trifluoromethyl)phenyl)-3,4-dihydropyrrolo[1,2-a]pyrazin-2(1H)-yl)ethoxy)ethyl)benzenesulfonamide]
